The values that follow are results of earlier work, collected in paper PMC11510164 (Pharmaceuticals, 2024).

As a reminder, the LD50 is the dose expected to kill half of the subjects tested.

Where two headings read alike, the source gives them in different places.

The test system of data set [1] is rats. The settings on record: rat, in vivo, po.
Where [2] appears, read: pure component (ChCl: solid), ref per cell: 90, 123, 125, 126, 127, 129, 137, 139.

Consider `CC1CCC(C(C)C)C(O)C1` (racemic) [MNT, (±)-menthol], for which the “Density (g/cm^3)” value under setting [2] was 0.89 [90] g/cm^3. Moreover, the LD50 in data set [1] is 3000 mg/kg.
For `N=C(N)NCCC[C@H](N)C(=O)O` [Arg, L-Arginine], under setting [2], the “Density (g/cm^3)” value is 1.42 [126] g/cm^3.
For the compound `C[N+](C)(C)CCO` [ChCl, Choline chloride], the “Density” value runs as follows: under setting [2], roughly 1.205 g/mL; (sol. 70%) roughly 1.1 g/mL.
With `N[C@@H](CS)C(=O)O` [Cys, L-Cysteine], the “Density (g/cm^3)” value under setting [2] is 1.66 [126] g/cm^3.
With `CCCCCCCCCC(=O)O` [Dec, Decanoic acid (capric acid)], under setting [2], the “Density (g/cm^3)” value was 0.89 [126] g/cm^3.
On to `OC[C@H]1OC(O)(CO)[C@@H](O)[C@@H]1O` (stereo partly drawn) [Fru, D-(−)-fructose], for which the “Density (g/cm^3)” value under setting [2] was 1.60 [126] g/cm^3.
With `O=C(O)CO` [Gla, Glycolic acid], under setting [2], the “Density (g/cm^3)” value was 1.26 [126] g/cm^3.
Take `OC[C@H]1O[C@H](O)[C@H](O)[C@@H](O)[C@@H]1O` [Glu, D-(+)-glucose]: the “Density (g/cm^3)” value under setting [2] is 1.5620 [126] g/cm^3.
Regarding `OCC(O)CO` [Gly, Glycerol], the “Density (g/cm^3)” value under setting [2] was 1.26 [129] g/cm^3.
For `CC(C)Cc1ccc(C(C)C(=O)O)cc1` (stereo not shown) [IBU, Ibuprofen, reference compound], the “Density (g/cm^3)” value under setting [2] was 1.03 [123] g/cm^3.
As to `CCCCCCCCCCCCCC(=O)OC(C)C` [IPM, Isoporpyl miristate], the “Density (g/cm^3)” value under setting [2] was 0.85 [126] g/cm^3.
For the compound `C[C@H](O)C(=O)O` [Lac, L-lactic acid], under setting [2], the “Density (g/cm^3)” value is 1.25 [129] g/cm^3.
For the compound `C=C(C)[C@H]1CC=C(C)CC1` [Lim, (R)-(+)-limonene], the “Density (g/cm^3)” value under setting [2] is 0.84 [126] g/cm^3.
For the compound `Cc1cccc(Nc2ccccc2C(=O)O)c1C` [MFA, Mefenamic acid, reference compound], under “25 °C”, the water solubility is 10 to 20 µg/mL. Also, the “Density (g/cm^3)” value under setting [2] is 1.20 [125] g/cm^3.
On to `CCCCCCCC/C=C\CCCCCCCC(=O)O` [OLA, Oleic acid], for which the “Density (g/cm^3)” value under setting [2] was 0.89 [126] g/cm^3.
Turning to `O=C(O)C(=O)O` [Oxa, Oxalic acid], under setting [2], the “Density (g/cm^3)” value is 1.90 [126] g/cm^3.
In the case of `CC(O)CO` (stereo not shown) [PG, Propylene glycol], the “Density (g/cm^3)” value under setting [2] is 1.04 [126] g/cm^3.
With `OC[C@@H](O)[C@@H](O)[C@H](O)[C@@H](O)CO` [Sor, D-(−)-sorbitol], under setting [2], the “Density (g/cm^3)” value is 1.47 [129] g/cm^3.
Turning to `OC[C@@H](O)[C@H](O)[C@@H](O)CO` [Xyl, Xylitol], the “Density (g/cm^3)” value under setting [2] was 1.50 [137] g/cm^3.
